Results published in ChEMBL document CHEMBL4411258, “Novel natural compounds from endophytic fungi with anticancer activity” (Eur J Med Chem, 2018).

Columns and labels:
[1] = test system: PC-3; experiment: Cytotoxicity against human PC3 cells after 48 hrs by MTT assay; type: functional, cell-based; details: PC-3, 48 h
[2] = test system: MCF7; experiment: Cytotoxicity against human MCF7 cells after 48 hrs by MTT assay; type: functional, cell-based
[3] = test system: NB-4; experiment: Cytotoxicity against human NB4 cells after 48 hrs by MTT assay; type: functional, cell-based; details: NB-4, 48 h
[4] = test system: A549; experiment: Cytotoxicity against human A549 cells after 48 hrs by MTT assay; type: functional, cell-based
[5] = test system: SH-SY5Y; experiment: Cytotoxicity against human SH-SY5Y cells after 48 hrs by MTT assay; type: functional, cell-based
[6] = test system: HepG2; experiment: Cytotoxicity against human HepG2 cells by MTT assay; type: functional, cell-based
[7] = test system: L02; experiment: Cytotoxicity against human L02 cells by MTS assay; type: cell-based
[8] = test system: SH-SY5Y; experiment: Cytotoxicity against human SH-SY5Y cells by MTT assay; type: functional, cell-based
[9] = test system: A549; experiment: Cytotoxicity against human A549 cells by MTT assay; type: functional, cell-based
[10] = Homo sapiens, MCF7, 48 h, read-out: IC50
[11] = Homo sapiens, A549, 48 h, read-out: IC50

## C[C@H]1C(=O)N2c3ccccc3[C@@]3(O)C[C@H](n4cnc5ccccc5c4=O)C(=O)N1[C@@H]23
[1]
  IC50: 32.2 µM

## COC(=O)CCCN1C(=O)[C@@]23O[C@@]4(O)[C@@]5(O)[C@@H]2[C@@H](Cc2cccc1c23)C(C)(C)N5C(=O)[C@]4(O)[C@@H](C)O
[2]; [10]
  IC50: < 10 µM
[3]
  IC50: < 10 µM
[4]; [11]
  IC50: < 10 µM
[5]
  IC50: < 10 µM

## COc1ccc2c(c1)N(C(=O)C=C(C)C)C1C2[C@H](O)[C@@]2(O)C(=O)N3CCC[C@H]3C(=O)N2[C@H]1CC(C)(C)O (stereo partly specified)
[1]
  IC50: 30.6 µM

## COC(=O)[C@]1(Cc2ccc(OC)c(CC=C(C)C)c2O)OC(=O)C(O)=C1c1ccc(O)cc1
[6]
  IC50: 4.8 µM
[7]
  IC50: 3.9 µM

## COC(=O)[C@]1(Cc2ccc(O)c(CC=C(C)C)c2)OC(=O)C(O)=C1c1ccccc1
[6]
  IC50: < 10 µM
[8]
  IC50: < 10 µM
[7]
  IC50: < 10 µM

## C[C@@H](O)[C@@]1(O)C(=O)N2C(C)(C)[C@@H]3Cc4cccc5c4[C@@]4(O[C@@]1(O)[C@@]2(O)[C@H]34)C(=O)N5C
[2]; [10]
  IC50: 1.2 to 4.2 µM
[3]
  IC50: 1.2 to 4.2 µM
[4]; [11]
  IC50: 1.2 to 4.2 µM
[5]
  IC50: 1.2 to 4.2 µM
[1]
  IC50: 1.2 to 4.2 µM

## CC(=O)OCC1=C[C@@H]2[C@H](CCO)[C@@]1(C)CCCC2(C)C
[2]; mcf7
  IC50: 19.1 µM
[4]; a549
  IC50: 33.2 µM

## C/C(=C\Cc1c(O)ccc2c1C=C(CO)OC2)CO
[2]; [10]
  IC50: 2.8 to 8.8 µM
[3]
  IC50: 2.8 to 8.8 µM
[4]; [11]
  IC50: 2.8 to 8.8 µM
[5]
  IC50: 2.8 to 8.8 µM
[1]
  IC50: 2.8 to 8.8 µM

## COC(=O)c1cccc2oc3cc(C)cc(O[C@@H]4O[C@H](CO)[C@@H](O)[C@H](O)[C@H]4O)c3c(=O)c12
[7]
  IC50: 6.8 µg/mL

## COc1cc(C)c2c(c1)oc(=O)c1c(O)cc(O[C@@H]3O[C@H](CO)[C@H](O)[C@H](O)[C@H]3O)cc12
[7]
  IC50: 7.2 µg/mL

## COc1ccc2c(c1CC=C(C)C)C=C(C)OC2
[6]
  IC50: 8.2 µM
[8]
  IC50: 6.8 µM

## COc1c(O)cc2c(c1CC=C(C)C)C[C@@H](C)OC2=O
[8]
  IC50: 8.8 µM

## CC(C)=CCc1cc2c3c(c1)N(C)C(=O)[C@]31O[C@]3(O)[C@@H](O)C(=O)N4C(C)(C)[C@H](C2)[C@H]1[C@@]43O
[2]; [10]
  IC50: 1.2 to 4.2 µM
[3]
  IC50: 1.2 to 4.2 µM
[4]; [11]
  IC50: 1.2 to 4.2 µM
[5]
  IC50: 1.2 to 4.2 µM
[1]
  IC50: 1.2 to 4.2 µM

## COc1c(O)cc2c(c1CC=C(C)C)C=C(C)OC2
[9]
  IC50: 9.4 µM
[6]
  IC50: 8.8 µM

## COc1cc(O)c2c(=O)c3c(O)ccc(C(CO)C(O)CO)c3oc2c1O (stereo unspecified)
[9]
  IC50: 3.6 µM

## CC(=O)Cc1cc2c(CCCO)cc(O)cc2c(=O)o1
[2]; [10]
  IC50: 2.8 to 8.8 µM
[3]
  IC50: 2.8 to 8.8 µM
[4]; [11]
  IC50: 2.8 to 8.8 µM
[5]
  IC50: 2.8 to 8.8 µM
[1]
  IC50: 2.8 to 8.8 µM

## COc1cc2c(c3c1OC(C)(C)CC3=O)C[C@@H](C)OC2=O
[6]
  IC50: 4 µM
[7]
  IC50: 3.8 µM

## CCCCC[C@@H]1CC[C@H](C)CCCCC(=O)N[C@@H](Cc2ccc(OCC=C(C)C)cc2)C(=O)O1
[6]
  IC50: 36.6 µM

## COc1cc(OC)c2c(c1CC=C(C)C)C[C@@H](C)OC2=O
[6]
  IC50: 9.4 µM
[8]
  IC50: 8.5 µM

## COC(=O)[C@]1(Cc2cc(CC=C(C)C)c(O)c(OC)c2)OC(=O)C(O)=C1c1ccc(O)cc1
[6]
  IC50: 3.6 µM
[7]
  IC50: 4.2 µM

## CS[C@@]1(CO)C(=O)N(C)[C@@](Cc2cn([C@@]34C[C@@]5(SC)C(=O)N(C)[C@](CO)(SC)C(=O)N5[C@]3(C)Nc3ccccc34)c3ccccc23)(SC)C(=O)N1C
[2]; [10]
  IC50: 8.3 µg/mL

## COC(=O)[C@]1(Cc2ccc(OC)c(CC=C(C)C)c2)OC(=O)C(O)=C1c1ccccc1
[6]
  IC50: < 10 µM
[8]
  IC50: < 10 µM
[7]
  IC50: < 10 µM

## Cc1cc(O)c2c(c1)C(=O)c1c(c(O)cc(O)c1-c1c(O)cc(O)c3c1C(=O)c1cc(CC(C)O)cc(O)c1C3=O)C2=O (stereo unspecified)
[2]; [10]
  IC50: 20.8 µg/mL

## COC(=O)CCCN1C(=O)[C@]23O[C@]4(O)[C@@H](O)C(=O)N5C(C)(C)[C@H](Cc6cccc1c62)[C@H]3[C@@]54O
[2]; [10]
  IC50: < 10 µM
[3]
  IC50: < 10 µM
[5]
  IC50: < 10 µM
[1]
  IC50: < 10 µM

## COC(=O)[C@]1(Cc2ccc(O)c(CC=C(C)C)c2)OC(=O)C(O)=C1c1ccc(OC)cc1
[6]
  IC50: < 10 µM
[8]
  IC50: < 10 µM
[7]
  IC50: < 10 µM

## COc1ccc(C(CO)C(O)CO)c2oc3c(O)c(O)cc(O)c3c(=O)c12 (stereo unspecified)
[8]
  IC50: 4.2 µM
